Test results from US20030064385A1, “Genes expressed in breast cancer as prognostic and therapeutic targets” (priority 2001, published 2003).

System: primary invasive breast cancer
Assay: Clinical tumor response (WHO criteria) in randomized Phase III neoadjuvant trial of letrozole versus tamoxifen; patients with profiled biopsies
Assay type: in vivo, human
Settings: clinical outcome of patients with profiled pre-treatment biopsies; postmenopausal women; response by palpation at 4 months
Description: Definitions of Objective Response Used in the Letrozole (FEMARA™) vs. Tamoxifen Comparison Study
1. Complete Response (CR): The disappearance of all known disease, determined by 2 observations not less than 4 weeks apart.
2. Partial Response (PR): A 50% or more decrease in total tumor size of the lesions which have been measured to determine the effect of therapy by 2 observations not less than 4 weeks apart. In addition there can be no appearance of new lesions or progression of any lesion.
4. Progressive Disease (PD): A 25% or more increase in the size of one or more measurable lesions, or the appearance of new lesions.
Clinical Response Assessment
The primary efficacy variable was tumor response, assessed by clinical examination using World Health Organization (WHO) criteria (see, WHO Handbook for Reporting Results of Cancer Treatment). It was defined as the percentage of patients in each treatment group with a CR or PR as determined clinically in the breast by palpation at 4 months. Possible responses were CR, PR, NC, PD or not assessable/not evaluable (NA/NE). Palpable ipsilateral axillary lymph nodal involvement downgraded a clinical CR in tumor. Other factors were also considered such the percentage of patients who underwent breast-conserving surgery (quadrantectomy/lumpectomy) instead of mastectomy. Patients who became inoperable, or who remained inoperable at 4 months, were counted as treatment failures.
Twenty-one RNA samples were extracted from 14-gauge needle core biopsies collected before initiation of neoadjuvant endocrine therapy from patients enrolled in a randomized Phase III trial of letrozole (FEMARA™, Novartis Pharma, Basal Switzerland) versus tamoxifen for postmenopausal women with primary invasive breast cancer ineligible for breast conserving surgery. RNA was extracted from an additional 30 primary breast adenocarcinomas collected in Sweden, one additional ESR1+breast tumor surgical biopsy, two HUVEC samples, two samples from glioblastoma cell line U373-MG and one MCF7 sample using Trizol (Life Technologies, Gaithersburg, Md.). The clinical samples were collected after informed consent had been obtained according to protocols approved by local ethics committees. RNA was purchased for two samples, an infiltrating Stage III duct carcinoma (Ambion, Austin, Tex.) and a pool of two normal breast tissues (Clontech, Palo Alto, Calif.). The total number of samples prepared was 59 including 53 breast cancer biopsies and one pooled normal breast sample. Total RNA was purified using QIAGEN RNEASY™ columns (Qiagen, Valencia, Calif.), processed and hybridized to the HUGENE™ FL 6800 Array (Affymetrix, Santa Clara, Calif.), as described by Lockhart et al., Nat. Biotechnol., Vol. 14, pp. 1675-1680 (1996).
In another aspect of the invention 136 breast biopsies from 53 patients were obtained. RNA was extracted from 116 biopsies. Expression profiles were generated for 43 biopsies from 35 patients. Predictive markers of endocrine therapy responsiveness in breast tumors were identified. The breakdown of the profiled biopsies from the pre-letrozole (FEMARA™) treatments and the patient's clinical outcome was as follows: four patients with CR, nine patients with PR, four patients with NC and four patients with PD.
For the group treated with tamoxifen there were no patients in the CR category, 10 patients with PR, seven patients with NC and four patients with PD.

SMILES	patients with CR (complete response)	patients with NC (no change)	patients with PD (progressive disease)	patients with PR (partial response)
N#Cc1ccc(C(c2ccc(C#N)cc2)n2cncn2)cc1 [letrozole]	four	four	four	nine
CC/C(=C(\c1ccccc1)c1ccc(OCCN(C)C)cc1)c1ccccc1 [tamoxifen]	no patients	seven	four	10 patients
